The values below are quoted from earlier work in patent US12070440B2, “Topical formulations of nitroglycerin” (PERMEATUS, INC., priority 2022, dated 2024).

Where two headings read alike, the source gives them in different places.

On to `O=[N+]([O-])OCC(CO[N+](=O)[O-])O[N+](=O)[O-]` [nitroglycerin, 1,2,3-trinitroxypropane], for which the “decomposition by denitration to 1,2-GDN” value is “faster” (acidic environment (0.1N HCl)); “slow” (pH 7.4); “rapid” (pH values of 11 and above).
